Legend:
[1] = tested on: CEM/VLB1000; assay: Cytotoxicity potentiation (alamar blue) of vinblastine in multidrug-resistant cells; assay type: cell-based; details: midpoint of minimum and maximum cytotoxicity induced by 3-5 μg/mL vinblastine and compound, 48 h
Experimental: Multidrug-resistant cell lines are easily obtainable for in vitro determination of drug sensitization by compounds of the present invention. In vitro potentiation of antineoplastic cytotoxicity by the imidazole derivatives of the present invention was measured in both CEM/VLB1000 and SK/VLB1000 cell lines. The multidrug resistant cell lines were obtained from Dr. Victor Ling, Ontario Cancer Institute, Toronto, Canada. The CEM/VLB 1000 cell line was maintained as a suspension in minimum essential medium supplemented with 10% fetal bovine serum in a humidied atmosphere of 95% air and 5% CO2 while the SK/VLB 1000 cell line was maintained as adherent cells using the identical medium conditions as the CEM cells. The CEM/VLB 1000 cells were seeded at a density of 5×10^4 cells/well in a 96 well microtiter plate while the SK/VLB 1000 cell line was seeded at a density of 2,500 cells/well after trypsinization. Vinblastine (5 μg/mL, for the CEM cells) or Taxol (3 μg/mL, for the SK cells) and compound (0.01 to 50 μM) were added directly to the wells. After an incubation of 48 hours in presence of drug, alamar blue (B. Page et al., Int. J. Oncol. 3: 473-476, 1993) was added (10 μL to the 200 μL cell suspension) for a period of 24 hours after which the fluorescence (excitation=530 nm, emission=590 nm) was read for each well using a "CytoFluor" microtiter fluorometer plate reader. This assay measures the effective concentration of compound necessary to enhance the cytotoxicity (EC50) of vinblastine in the MDR cell line.
^1 Values presented are the midpoint (EC50) of the minimum and
maximum cytotoxicity induced by 3-5 μg/mL vinblastine and the specific
compound of the present invention.

[2] = tested on: CEM/VLB1000; assay: [3H]-vinblastine (VLB) accumulation assay; assay type: cell-based; details: midpoint of minimum and maximum increase in accumulation of 3H-vinblastine (275 nM), 3 hours at 37° C.
Experimental: ^3 H-vinblastine accumulation was also measured in the CEM/VLB1000 cell line. Corning Easy-Wash 96 well plates were pretreated with PBS and 1% BSA for 60 minutes and then removed. CEM/VLB1000 cells were seeded at 2×10^5, 40 μL volume. Plates were incubated at 37° C. for 30-60 minutes prior to use. The reference reversing agent, verapamil, or the compound of the present invention was added to the well followed by addition of media containing ^3 H-vinblastine (final concentration=275nM). Plates were allowed to incubate for 3 hours at 37° C. Cells were harvested onto pretreated Wallace filtermats A (pretreated with 0.1% polyethyleneimine) using a TomTek harvester-96. After filtering, the filtermats were allowed to dry completely. Meltix B scintillant was then added to the filtermats. The filters were then placed in a 90° C. oven for approximately 3-5 minutes and then removed. Scintillant was allowed to solidify on the filtermats. Filtermats were then placed in sample bags and read on a Wallace BetaPlate scintillation counter. The effects of compounds of the present invention in the cytotoxicity potentiation assays and vinblastine (VLB) accumulation assay are given in the Table below:
^2 Values presented are the midpoint (EC50) of the minimum and
maximum increase in accumulation of ^3 Hvinblastine caused by the
specific compound of the present invention.

| SMILES | EC50 [2] [nM] | EC50 [1] [nM] |
| --- | --- | --- |
| COC(=O)/C=C/c1csc(-c2nc(-c3ccc(N(C)C)cc3)c(-c3ccc(N(C)C)cc3)[nH]2)c1 [Example 62, 2-[3-(trans-methylpropenoate)thienyl]-4,5-bis[(4-N,N-dimethylamino)phenyl] imidazole] | 3000 | 320 |
| COCCCc1ccc(-c2nc(-c3ccc(N(C)C)cc3)c(-c3ccc(N(C)C)cc3)[nH]2)cc1 [Example 63, 2-[4-(3-methoxypropyl)phenyl]-4,5-bis[(4-N,N-dimethylamino)phenyl] imidazole] | 1100 | 205 |
| COc1ccc(/C=C/C(=O)OC(C)C)cc1-c1nc(-c2ccc(N(C)C)cc2)c(-c2ccc(N(C)C)cc2)[nH]1 [Example 64, 2-[2-methoxy-5-(trans-i-propylpropenoate)phenyl]-4,5-bis(4-N,N-dimethylaminophenyl) imidazole] | 6000 | 390 |
| CC(C)OC(=O)/C=C/c1ccc(-c2nc(-c3ccc(N(C)C)cc3)c(-c3ccc(N(C)C)cc3)[nH]2)s1 [Example 65, 2-[3-(trans-i-propylpropenoate)thienyl]-4,5-bis[(4-N,N-dimethylamino)phenyl] imidazole] | 4000 | 211 |
| CN(C)c1ccc(-c2nc(-c3ccc(/C=C/C(=O)OCc4ccccc4)cc3)[nH]c2-c2ccc(N(C)C)cc2)cc1 [Example 67, 2-[4-(trans-benzylpropenoate)phenyl]-4,5-bis[(4-N,N-dimethylamino)phenyl] imidazole] | 10500 | 330 |
| CN(C)c1ccc(-c2nc(-c3ccc(/C=C/C(=O)OCCc4ccccc4)cc3)[nH]c2-c2ccc(N(C)C)cc2)cc1 [Example 68, 2-[4-(trans-phenethylpropenoate)phenyl]-4,5-bis[(4-N,N-dimethylamino)phenyl] imidazole] | > 30000 | 1200 |

Second part, led by results:

| EC50 [2] [nM] | SMILES | EC50 [1] [nM] |
| --- | --- | --- |
| 3200 | CNc1ccc(-c2[nH]c(-c3ccc(F)c(/C=C/C(=O)OC)c3)nc2-c2ccc(N(C)C)cc2)cc1 [Example 59, 2-[4-fluoro-3-(trans-methylpropenoate)phenyl]-4-[(4-N,N-dimethylamino)phenyl]-5-[(4-N-methylamino)phenyl] imidazole] | 570 |
| 3000 | COC(=O)/C=C/c1ccc(-c2nc(-c3ccc(N(C)C)cc3)c(-c3ccc(N(C)C)cc3)[nH]2)c(F)c1 [Example 60, 2-[2-fluoro-4-(trans-methylpropenoate)phenyl]-4,5-bis(4-N,N-dimethylaminophenyl) imidazole] | 613 |
| 1800 | COC(=O)/C=C/c1ccc(-c2nc(-c3ccc(N(C)C)cc3)c(-c3ccc(N(C)C)cc3)[nH]2)s1 [Example 61] | 217 |

— patent publication US5756527A, “Imidazole derivatives useful as modulators of multi drug resistances” (Ontogen Corporation, priority 1997, dated 1998)
